From patent US20080221084A1, “METHOD FOR REDUCING INFARCTION USING VASOPRESSIN ANTAGONIST COMPOUNDS, AND COMPOSITIONS AND COMBINATIONS THEREFOR” (OTSUKA PHARMACEUTICAL CO., LTD., priority 2006, published 2008)

Key:
[1] = system: regional cardiac ischemia/reperfusion in rat heart; test: 20 minutes regional cardiac ischemia and 3 hours reperfusion in hyponatremic rats: myocardial infarction, risk size, hemodynamics; assay type: in vivo, rat (male Sprague-Dawley); conditions: 20 min regional ischemia, 3 h reperfusion on day 14, compared with saline-infused or vehicle-treated rats, TTC staining
Source text: The condition of hypotonic hyponatremia was created by infusing a selective vasopressin V2 agonist, DDAVP, into rats using an osmotic minipump implanted subcutaneously for 14 days in animals with access to only liquid food (a model of SIADH: syndrome of inappropriate antidiuretic hormone secretion). Control rats had the same surgical implantation of an osmotic minipump filled with saline. Rats either received a daily oral administration of tolvaptan or vehicle in an escalating dosing regime. At the end of the 14-day period, rats were subjected to 20 minutes of regional cardiac ischemia and 3 hours of reperfusion, and myocardial infarction was determined. At the final day of the study (day 14), rats were anesthetized, and the chest was open. Hearts were subjected to 20 minutes of regional ischemia followed by 3 hours of reperfusion. On day 14, rats were anesthetized with pentobarbital (30 mg/kg) by an intraperitoneal injection. Once anesthesia was induced, a tracheotomy was performed, and the trachea was cannulated and the animal was attached to a respirator. An oxygen supplement was fed into the tracheal line to maintain the pO2 above 100 mmHg. A cannula was inserted into the right carotid artery to monitor blood pressure and heart rate. The heart was exposed through a left thoracotomy in the fourth intercostal space, and the pericardium opened. A snare was placed around a major branch of the left coronary artery of the animal using a 5-0 suture. The suture ends were passed through a small segment of pliable polyethylene tubing to form a snare. Regional ischemia was induced by pulling the silk tightly through the tubing and clamping the tube with a hemostat. Experiments involved 20 minutes of ischemia and 3 hr reperfusion, which was achieved by releasing the snare. Myocardial ischemia and reperfusion were confirmed by the observation of regional cyanosis and hyperemia, respectively. […] Infarct size was determined by planimetry and expressed as a percentage of risk area infarcted. Data were expressed as the Mean ±SD (standard deviation). […]

[2] = system: rats with hypotonic hyponatremia (model of SIADH); test: DDAVP-induced hypotonic hyponatremia in rats (model of SIADH): plasma sodium and osmolarity; assay type: in vivo, rat (male Sprague-Dawley); conditions: day 14, end of experiment; DDAVP infused 1 ng/h s.c. for 14 days, liquid diet; Mean ±SD
Source text: The condition of hypotonic hyponatremia was created by infusing a selective vasopressin V2 agonist, DDAVP, into rats using an osmotic minipump implanted subcutaneously for 14 days in animals with access to only liquid food (a model of SIADH: syndrome of inappropriate antidiuretic hormone secretion). […] Rats either received a daily oral administration of tolvaptan or vehicle in an escalating dosing regime.
Tolvaptan was supplied as a spray-dried formulation, which is a mixture of tolvaptan (free form) and hydroxypropylcellulose (HPC-SL) at a ratio of 2:1. Therefore, the amount of tolvaptan (spray-dried form) was 1.5 times that of tolvaptan (free form). Tolvaptan was suspended in 1% hydroxypropylmethylcellulose solution.
The V2 agonist DDAVP ([deamino-Cys1, D-Arg8]-vasopressin was dissolved in saline (2 μg/mL).
Male Sprague-Dawley rats weighing 150-175 grams were used. Rats had access to feed and tap water. From day −3 (see the timeline in FIG. 1), rats were fed with a customized liquid food (RD-LD89 All-Purpose Liquid Diet Premix, Research Diets, Inc, New Brunswick, N.J.) and no additional food or water was provided. The liquid diet was mixed with water according to manufacturer's instructions.
Rats were acclimated for 3 days to liquid food before the study. Hyponatremia was induced by continuous subcutaneous infusion of 1 ng/h of DDAVP per animal using osmotic minipumps (infusion rate: 0.5 μL/h, ALZET model 2002, DURECT Corporation, Cupertino, Calif.) for 14 days (see FIG. 1). On day 0 when the osmotic minipump was implanted, rats were anesthetized by an intraperitoneal injection of a mixture of ketamine (40 mg/kg) and xylazine (5 mg/kg). The following procedure of implanting minipumps was performed using aseptic techniques. An area 4 cm long and 3 cm wide on the back of the animal (slightly posterior to the scapulae) was shaved and cleaned. A 1 cm cross mid-scapular incision was made. A hemostat was inserted into the incision and a pocket for the pump was created by opening and closing the jaw of the hemostat to spread the subcutaneous tissue. The pump (length 3 cm, diameter 0.7 cm and 0.4 grams) was inserted into the pocket, delivery portal first. The wound was closed with wound clips, and animals were placed on a heating pad for recovery, and eventually returned back to the cage.
On day 2 after the surgery, animals were switched to a nutritionally complete liquid food diet containing 14% dextrose (see FIG. 1). No additional water or solid food was provided.
Starting from day 4, an escalating dosing regime of tolvaptan or vehicle was used from 0.25 mg/kg to 10 mg/kg daily.

SMILES | myocardial infarct size (percentage of risk area infarcted) [1] | plasma osmolarity [2] [mOsm/kg] | plasma sodium [2] [mmol/L] | myocardial infarct size (percentage of risk area infarcted) ([1]; listed as tolvaptan)
NC(=O)CC[C@@H]1NC(=O)[C@H](Cc2ccccc2)NC(=O)[C@H](Cc2ccc(O)cc2)NC(=O)CCSSC[C@@H](C(=O)N2CCC[C@H]2C(=O)N[C@H](CCCN=C(N)N)C(=O)NCC(N)=O)NC(=O)[C@H](CC(N)=O)NC1=O [DDAVP, [deamino-Cys1, D-Arg8]-vasopressin] | more than double | 264±6 | 114 ± 7 | 
Cc1ccccc1C(=O)Nc1ccc(C(=O)N2CCCC(O)c3cc(Cl)ccc32)c(C)c1 (stereo not shown) [Tolvaptan, 7-chloro-5-hydroxy-1-[2-methyl-4-(2-methylbenzoyl-amino)benzoyl]-2,3,4,5-tetrahydro-1H-benzazepine] | reduced the infarct size in DDAVP-infused rats to a level similar to that in saline-infused rats | 304±8 | 140 ± 3 | much smaller degree as compared with that in vehicle-treated rats
